Assay results as given in ChEMBL document CHEMBL5579854, “Targeting Relevant HDACs to Support the Survival of Cone Photoreceptors in Inherited Retinal Diseases: Identification of a Potent Pharmacological Tool with In Vitro and In Vivo Efficacy” (J Med Chem, 2024).
In brackets after ≈: the same amount, converted by molar mass. Activity calls are given as the source filed them. The rule behind the calls is not given here.

Tests used:
Mus musculus [1] = test: Upregulation of Nr3c1 mRNA level in eyes of C57BL/6J mouse model harboring rd10 mutant at 5 to 30 uM, IVT administered bilaterally measured after 5 days by RT-PCR analysis; type: functional, tissue-based; details: Eye, dose 5-30 µM, time 5.0 day
Mus musculus [2] = test: Upregulation of GNAT2 mRNA level in eyes of C57BL/6J mouse model harboring rd10 mutant at 5 to 30 uM, IVT administered bilaterally measured after 5 days by RT-PCR analysis; type: functional, tissue-based; details: Eye, dose 5-30 µM, time 5.0 day
[3] = Metabolic stability in mouse liver microsomes assessed as compound recovery at 10 uM incubated for 60 mins in presence of NADPH by HPLC analysis; type: ADME, Microsome; details: read-out: Stability
661W [4] = test: Cytoprotective effect against H2O2-induced oxidative stress in mouse 661W cells assessed as increase in acetylated alpha-tubulin level incubated for 24 hrs followed by H2O2 treatment for 3 hrs by Western blot analysis; type: functional, cell-based; details: dose 10-30 µM, time 27.0 hrs
[5] = Toxicity in zebrafish larval dye model harboring atp6v0e1/ucd6 assessed as morphological change in eye at 80 to 100 uM treated for 2 days by toluidine blue staining based analysis; type: tissue-based, Danio rerio; details: in vivo, 48 h, dose 80-100 µM, time 2 day
[6] = Solubility of compound; type: physicochemical
661W [7] = test: Cytoprotective effect against H2O2-induced oxidative stress in mouse 661W cells assessed as increase in acetylated alpha-tubulin level at 10 to 30 uM incubated for 24 hrs followed by H2O2 treatment for 3 hrs by immunofluorescence analysis; type: functional, cell-based; details: dose 10-30 µM, time 27.0 hrs
[8] = Toxicity in zebrafish larval dye model harboring atp6v0e1/ucd6 assessed as morphological abnormalities at 20 to 100 uM treated for 2 days; design: species or system Danio rerio; details: in vivo, 48 h, dose 20-100 µM, time 2 day
[9] = Metabolic stability in human liver microsomes assessed as compound recovery at 10 uM incubated for 60 mins in presence of NADPH by HPLC analysis; type: ADME, Microsome; details: read-out: Stability
[10] = Inhibition of CYP in mouse liver microsomes using ECOD at 1 to 50 uM measured upto 30 mins by fluorescence based assay; type: ADME, Microsome; details: 0.5 h, dose 1-50 µM
Mus musculus [11] = test: Upregulation of ARR3 mRNA level in eyes of C57BL/6J mouse model harboring rd10 mutant at 5 to 30 uM, IVT administered bilaterally measured after 5 days by RT-PCR analysis; type: functional, tissue-based; details: Eye, dose 5-30 µM, time 5.0 day
Mus musculus [12] = test: Upregulation of Hsp90b1 mRNA level in eyes of C57BL/6J mouse model harboring rd10 mutant at 5 to 30 uM, IVT administered bilaterally measured after 5 days by RT-PCR analysis; type: functional, tissue-based; details: Eye, dose 5-30 µM, time 5.0 day
Cone cell [13] = test: Rescue of cone morphology with numerous longer outer segments in eyes of C57BL/6J mouse model harboring rd10 mutant at 5 to 30 uM, IVT administered bilaterally measured after 5 days by fluorescence microscopy; type: functional, tissue-based; details: Eye, dose 5-30 µM, time 5.0 day
Mus musculus [14] = test: Upregulation of […] mRNA level in eyes of C57BL/6J mouse model harboring rd10 mutant at 5 to 30 uM, IVT administered bilaterally measured after 5 days by RT-PCR analysis; type: functional, tissue-based; details: Eye, dose 5-30 µM, time 5.0 day
661W [15] = test: Cytoprotective effect against H2O2-induced oxidative stress in mouse 661W cells assessed as increase in acetylated histone H3 level at 5 uM incubated for 24 hrs followed by H2O2 treatment for 3 hrs by Western blot analysis; type: functional, cell-based; details: time 27.0 hrs
[16] = Toxicity in zebrafish larval dye model harboring atp6v0e1/ucd6 assessed as maximum tolerated dose treated for 2 days; design: species or system Danio rerio; details: in vivo, 48 h, time 2 day
661W [17] = test: Cytoprotective effect against H2O2-induced oxidative stress in mouse 661W cells assessed as increase in acetylated alpha-tubulin level at 30 uM incubated for 24 hrs followed by H2O2 treatment for 3 hrs by Western blot analysis; type: functional, cell-based; details: time 27.0 hrs
[18] = Inhibition of CYP1A in mouse liver microsomes using ECOD at 1 to 50 uM measured upto 30 mins by fluorescence based assay; type: ADME, Microsome; details: 0.5 h, dose 1-50 µM
Cone cell [19] = test: Rescue of cone cell morphology in eyes of C57BL/6J mouse model harboring rd10 mutant at 30 uM, IVT administered bilaterally measured after 5 days by IHC analysis; type: functional, tissue-based; details: Eye, time 5.0 day
Cytochrome P450 = test: Inhibition of CYP in human liver microsomes using ECOD at 1 to 50 uM measured upto 30 mins by fluorescence based assay; type: ADME, Microsome; details: 0.5 h, dose 1-50 µM
[20] = Toxicity in Langendorff-perfused Wistar rat heart assessed as effect on QTc prolongation at 0.1 to 30 uM by ECG analysis; type: tissue-based; details: dose 0.1-30 µM
Danio rerio [21] = organism: Danio rerio; test: Rescue of vision in zebrafish larval dye model harboring atp6v0e1/ucd6 at 100 uM treated for 2 days by OKR analysis; type: functional, organism-based; details: time 2.0 day
ARPE-19 = test: Cytoprotective effect against H2O2-induced oxidative stress in human ARPE-19 cells assessed as increase in cell viability at low concentration incubated for 24 hrs followed by H2O2 treatment by MTT assay; type: functional, cell-based
[22] = Stability of compound at pH 7.4 measured after 24 hrs; type: physicochemical; details: buffer, read-out: Stability
Danio rerio [23] = organism: Danio rerio; test: Rescue of visual acuity in zebrafish larval dye model harboring atp6v0e1/ucd6 at 100 uM treated for 2 days by OKR analysis; type: functional, organism-based; details: time 2.0 day
Mus musculus [24] = test: Rescue of scotopic response in eyes of C57BL/6J mouse model harboring rd10 mutant at 5 to 30 uM, IVT administered bilaterally measured after 5 days by ERG analysis; type: functional, tissue-based; details: Eye, dose 5-30 µM, time 5.0 day
[25] = Induction of cone cell survival rate in eyes of C57BL/6J mouse model harboring rd10 mutant at 30 uM, IVT administered bilaterally measured after 5 days by fluorescence microscopy relative to control; type: functional, Eye; details: time 5 day
Mus musculus [26] = test: Downregulation of Rps6kl1 mRNA level in eyes of C57BL/6J mouse model harboring rd10 mutant at 5 to 30 uM, IVT administered bilaterally measured after 5 days by RT-PCR analysis; type: functional, tissue-based; details: Eye, dose 5-30 µM, time 5.0 day
[27] = Toxicity in Langendorff-perfused Wistar rat heart assessed as effect on chronotropic activity at 0.1 to 30 uM; type: tissue-based; details: dose 0.1-30 µM
Cone cell [28] = test: Induction of cone cell survival in eyes of C57BL/6J mouse model harboring rd10 mutant at 5 to 30 uM, IVT administered bilaterally measured after 5 days by IHC analysis; type: functional, tissue-based; details: Eye, dose 5-30 µM, time 5.0 day
Mus musculus [29] = test: Upregulation of GNAT1 mRNA level in eyes of C57BL/6J mouse model harboring rd10 mutant at 5 to 30 uM, IVT administered bilaterally measured after 5 days by RT-PCR analysis; type: functional, tissue-based; details: Eye, dose 5-30 µM, time 5.0 day

For `O=C(NO)c1ccc(CNC(=O)N2CCc3c(c4ccccc4n3Cc3ccccc3)C2)cc1`, the Activity (Mus musculus [1]) was “Active”, the Activity (Mus musculus [2]) was “Active” and the remaining at 1 h, 10 µM [3] was 87%. The Activity (661W [4]) was “Dose-Dependent Effect”, the Activity [5] was “Non-Toxic” and the solubility [6] was 309 µM (≈ 140 µg/mL). For the same molecule, the Activity (661W [7]) was “Active”, the Activity [8] was “Non-Toxic” and the remaining at 1 h, 10 µM [9] was 84%. For the same molecule, the “inhibition (INH)” value [10] was “Not Active”, the Activity (Mus musculus [11]) was “Active” and the Activity (Mus musculus [12]) was “Active”. The Activity (Cone cell [13]) was “Active”, the Activity (Mus musculus [14]) was “Active” and the Activity (661W [15]) was “Active”. The MTD [16] was 100 µM, the Activity (661W [17]) was “Active” and the “inhibition (INH)” value [18] was “Not Active”. For the same molecule, the Activity (Cone cell [19]) was “Active”, the “inhibition (INH)” value (Cytochrome P450) was “Not Active” and the Activity [20] was “Non-Toxic”. For the same molecule, the Activity (Danio rerio [21]) was “Active”, the Activity (ARPE-19) was “Active” and the remaining at 24 h [22] was greater than 99%. The Activity (Danio rerio [23]) was “inactive”, the Activity (Mus musculus [24]) was “Active” and the Activity [25] was 17%. For the same molecule, the Activity (Mus musculus [26]) was “Active”, the Activity [27] was “Non-Toxic” and the Activity (Cone cell [28]) was “Active”. The Activity (Mus musculus [29]) was “Active”.
